# Reference: paper PMC4148167 (Journal of Medicinal Chemistry, 2014)
# Experiments:
# 305 kinases = experiment: Carna Biosciences kinome profile at 100 nM; assay type: biochemical; conditions: in duplicate
# A549 NSCLC cells = experiment: soft agar colony formation, A549; assay type: cell-based; conditions: 2 weeks, negative control 20 at 300 nM
# Molm-14 AML cells = experiment: soft agar colony formation, Molm-14; assay type: cell-based; conditions: 2 weeks, negative control 20 at 50 nM
# Mer = target: T1, Mer (Homo sapiens, UniProt Q12866); experiment: pharmacodynamic study: Mer phosphorylation in bone marrow leukemia cells in vivo; design: species or system NOD/SCID/gamma mice with 697 human leukemia xenografts; conditions: single 3 mg/kg oral dose, 30 min after dosing
# T1 sequence (Q12866 21-999): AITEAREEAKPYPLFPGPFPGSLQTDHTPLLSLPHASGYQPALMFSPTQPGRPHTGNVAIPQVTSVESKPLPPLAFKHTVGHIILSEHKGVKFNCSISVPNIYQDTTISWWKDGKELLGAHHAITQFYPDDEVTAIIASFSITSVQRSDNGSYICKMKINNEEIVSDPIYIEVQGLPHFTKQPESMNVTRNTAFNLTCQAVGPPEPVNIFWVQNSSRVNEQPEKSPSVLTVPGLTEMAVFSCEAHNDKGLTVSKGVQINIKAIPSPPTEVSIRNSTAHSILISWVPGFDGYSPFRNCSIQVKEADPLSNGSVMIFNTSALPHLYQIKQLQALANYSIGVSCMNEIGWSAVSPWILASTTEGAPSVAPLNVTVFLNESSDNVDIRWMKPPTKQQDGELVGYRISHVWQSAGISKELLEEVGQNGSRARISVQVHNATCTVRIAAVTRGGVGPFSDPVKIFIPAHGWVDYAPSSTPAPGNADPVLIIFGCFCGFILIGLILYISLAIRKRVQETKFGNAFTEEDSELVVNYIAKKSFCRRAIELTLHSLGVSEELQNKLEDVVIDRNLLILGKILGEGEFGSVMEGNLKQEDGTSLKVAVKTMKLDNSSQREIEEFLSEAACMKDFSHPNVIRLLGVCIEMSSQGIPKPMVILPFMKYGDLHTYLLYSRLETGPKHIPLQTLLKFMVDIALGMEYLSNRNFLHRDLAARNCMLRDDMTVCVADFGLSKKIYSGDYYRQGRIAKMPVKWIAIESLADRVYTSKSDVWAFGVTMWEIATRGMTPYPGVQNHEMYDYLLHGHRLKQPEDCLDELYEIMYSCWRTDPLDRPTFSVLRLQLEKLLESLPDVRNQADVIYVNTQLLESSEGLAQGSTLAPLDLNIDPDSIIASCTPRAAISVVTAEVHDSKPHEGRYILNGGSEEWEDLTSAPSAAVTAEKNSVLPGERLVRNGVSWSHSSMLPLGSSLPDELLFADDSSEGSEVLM
# kinetic solubility = assay type: physicochemical; conditions: normal saline, pH 7.4
SMILES,number of kinases inhibited by more than 50% (305 kinases),"effect on colony formation in soft agar, A549 NSCLC (A549 NSCLC cells)","effect on colony formation in soft agar, Molm-14 AML (Molm-14 AML cells)",decrease of Mer phospho-protein levels in bone marrow leukemia cells (Mer),solubility kinetic (kinetic solubility)
CCCCNc1ncc2c(-c3ccc(CN4CCN(C)CC4)cc3)cn([C@H]3CC[C@H](O)CC3)c2n1 [Compound 11],Sixty-six,significant inhibition of colony formation,significant inhibition of colony formation,greater than 90%,0.038 mg/mL
CCCCN(C)c1ncc2c(-c3ccc(CN4CCN(C)CC4)cc3)cn([C@H]3CC[C@H](O)CC3)c2n1 [Compound 20],,no significant effect,no significant effect,,
